Measured values from ChEMBL document CHEMBL4020814, “Synthesis, Binding Mode, and Antihyperglycemic Activity of Potent and Selective (5-Imidazol-2-yl-4-phenylpyrimidin-2-yl)[2-(2-pyridylamino)ethyl]amine Inhibitors of Glycogen Synthase Kinase 3” (J Med Chem, 2017).
pEC50, pIC50: −log10 of the molar value.

Tests used:
[1] = Inhibition of human GSK3 using biotin-CREB peptide substrate after 1 hr by scintillation counting method
[2] = Inhibition of GSK3 expressed in CHO-IR cells expressing human insulin receptor assessed as glycogen synthase activation after 30 mins by filter paper assay; assay type: cell-based, Cavia porcellus
[3] = Stability in rat liver microsomes assessed as half life; assay type: ADME, microsome
[4] = Stability in dog liver microsomes assessed as half life; assay type: ADME, Canis lupus familiaris, microsome

pIC50 [1] | pEC50 [2] | half-life [3] [min] | half-life [4] [min] | Structure (SMILES)
8.40 | 7.30 | > 30 | > 30 | Cc1ccc(-c2nc(NCCNc3ccc([N+](=O)[O-])c(N)n3)ncc2-c2ncc[nH]2)c(Br)c1
7.46 | 5.91 | > 30 | > 30 | FC(F)(F)c1ccc(NCCNc2ncc(-c3ncc[nH]3)c(-c3ccc(Cl)cc3Cl)n2)nc1
8.30 | 5.99 | > 30 | > 30 | Nc1nc(NCCNc2ncc(-c3ncc[nH]3)c(-c3ccc(Cl)cc3F)n2)ccc1[N+](=O)[O-]
7.33 | 5.52 | > 30 | > 30 | Nc1nc(NCCNc2ncc(-c3ncc[nH]3)c(-c3cc(F)ccc3F)n2)ccc1[N+](=O)[O-]
7.72 | 6.09 | > 30 | > 30 | Cc1cc(Cl)ccc1-c1nc(NCCNc2ccc([N+](=O)[O-])c(N)n2)ncc1-c1ncc[nH]1
7.89 | 5.64 | > 30 | > 30 | Nc1nc(NCCNc2ncc(-c3ncc[nH]3)c(-c3cc(F)c(Cl)cc3Cl)n2)ccc1[N+](=O)[O-]
8.15 | 6.38 | > 30 | > 30 | Nc1nc(NCCNc2ncc(-c3ncc[nH]3)c(-c3ccc(F)cc3Cl)n2)ccc1[N+](=O)[O-]
8.40 | 6.37 | > 30 | > 30 | Nc1nc(NCCNc2ncc(-c3ncc[nH]3)c(-c3ccc(Br)cc3Cl)n2)ccc1[N+](=O)[O-]
8.40 | 6.66 | > 30 | > 30 | Nc1nc(NCCNc2ncc(-c3ncc[nH]3)c(-c3ccc(F)cc3Br)n2)ccc1[N+](=O)[O-]
7.49 |  | > 30 | > 30 | Nc1nc(NCCNc2ncc(-c3ncc[nH]3)c(-c3cc(F)ccc3Cl)n2)ccc1[N+](=O)[O-]
5.54 |  | > 30 | > 30 | Clc1ccc(-c2nc(NCCNc3ccccn3)ncc2-c2ncc[nH]2)c(Cl)c1
7.29 | 5.23 | > 30 | > 30 | Nc1nc(NCCNc2ncc(-c3ncc[nH]3)c(-c3ccc(C(F)(F)F)cc3)n2)ccc1[N+](=O)[O-]
7.42 | 5.16 | > 30 | > 30 | Nc1nc(NCCNc2ncc(-c3ncc[nH]3)c(-c3cc(F)c(F)cc3F)n2)ccc1[N+](=O)[O-]
7.51 | 5.60 | > 30 | > 30 | Nc1nc(NCCNc2ncc(-c3ncc[nH]3)c(-c3ccc(Cl)cc3)n2)ccc1[N+](=O)[O-]
8.15 | 6.62 | > 30 | > 30 | Nc1nc(NCCNc2ncc(-c3ncc[nH]3)c(-c3ccccc3Br)n2)ccc1[N+](=O)[O-]
8.15 | < 5.00 | > 30 | > 30 | N#Cc1ccc(-c2nc(NCCNc3ccc([N+](=O)[O-])c(N)n3)ncc2-c2ncc[nH]2)cc1
7.89 | 5.48 | > 30 | > 30 | Nc1nc(NCCNc2ncc(-c3ncc[nH]3)c(-c3ccc(F)cc3C(F)(F)F)n2)ccc1[N+](=O)[O-]
7.72 | 5.66 | > 30 | > 30 | Nc1nc(NCCNc2ncc(-c3ncc[nH]3)c(-c3cc(F)c(Cl)cc3F)n2)ccc1[N+](=O)[O-]
8.30 | 6.30 | > 30 | > 30 | Nc1nc(NCCNc2ncc(-c3ncc[nH]3)c(-c3ccc(Br)cc3F)n2)ccc1[N+](=O)[O-]
6.71 | 4.62 |  |  | O=[N+]([O-])c1ccc(NCCNc2ncc(-n3ccnc3)c(-c3ccccc3)n2)nc1
8.05 | 7.00 |  |  | CCc1ccc(-c2nc(NCCNc3ccc([N+](=O)[O-])cn3)ncc2-n2ccnc2)cc1
8.15 | 8.00 |  |  | Nc1nc(NCCNc2ncc(-c3ccccn3)c(-c3ccc(Cl)cc3Cl)n2)ccc1[N+](=O)[O-]

pIC50 [1] | pEC50 [2] | half-life [3] [min] | half-life [4] [min] | Structure (SMILES)
7.47 | 6.52 |  |  | Cc1ccc(-c2nc(NCCNc3ccc([N+](=O)[O-])cn3)ncc2-n2ccnc2)cc1
6.96 | < 5.00 |  |  | CC(C)(C)NC(=O)c1cnc(NCCNc2ccc([N+](=O)[O-])cn2)nc1-c1ccc(C#N)cc1
7.40 | 5.77 |  |  | CCOC(=O)c1c(CC)nc(NCCNc2ccc([N+](=O)[O-])cn2)nc1-c1ccc(C#N)cc1
8.40 | 7.40 |  |  | Nc1nc(NCCNc2ncc(-n3cccc(C(F)(F)F)c3=O)c(-c3ccc(Cl)cc3Cl)n2)ccc1[N+](=O)[O-]
7.15 | < 5.00 |  |  | CN(C)CCNC(=O)c1cnc(NCCNc2ccc([N+](=O)[O-])cn2)nc1-c1ccc(C#N)cc1
7.42 | 5.38 |  |  | Cc1ccc(-c2nc(NCCNc3ccc([N+](=O)[O-])cn3)ncc2-n2ccnc2)c(C)c1
7.49 | 6.96 |  |  | O=[N+]([O-])c1ccc(NCCN(CCN2CCCCCC2)c2ncc(-n3ccnc3)c(-c3ccc(Cl)cc3Cl)n2)nc1
7.51 | 5.00 |  |  | O=[N+]([O-])c1ccc(NCCNc2ncc(-c3nnn[nH]3)c(-c3ccc(Cl)cc3Cl)n2)nc1
6.60 |  | > 30 | > 30 | COc1cc(Cl)ccc1-c1nc(NCCNc2ccc([N+](=O)[O-])c(N)n2)ncc1-c1ncc[nH]1
7.48 | 5.82 |  |  | Cc1noc(-c2cnc(NCCNc3ccc([N+](=O)[O-])cn3)nc2-c2ccc(C#N)cc2)n1
7.30 | 5.47 |  |  | CN(C)CCOC(=O)c1cnc(NCCNc2ccc([N+](=O)[O-])cn2)nc1-c1ccc(C#N)cc1
8.22 | 6.52 |  |  | O=[N+]([O-])c1ccc(NCCNc2ncc(-n3ccnc3)c(-c3ccc(Cl)cc3Cl)n2)nc1
7.85 | 6.07 |  |  | CC(C)[C@H](N)C(=O)Nc1cnc(NCCNc2ccc([N+](=O)[O-])c(N)n2)nc1-c1ccc(Cl)cc1Cl
9.00 | 6.60 |  |  | Cn1ccnc1-c1cnc(NCCNc2ccc([N+](=O)[O-])c(N)n2)nc1-c1ccc(Cl)cc1Cl
7.46 | < 5.00 |  |  | N#Cc1ccc(-c2nc(NCCNc3ccc([N+](=O)[O-])cn3)ncc2C(=O)O)cc1
8.52 | 6.36 |  |  | Cc1nc(-c2cnc(NCCNc3ccc([N+](=O)[O-])c(N)n3)nc2-c2ccc(Cl)cc2Cl)[nH]c1C
7.82 | 6.55 |  |  | O=[N+]([O-])c1ccc(NCCN(CCN2CCOCC2)c2ncc(-n3ccnc3)c(-c3ccc(Cl)cc3Cl)n2)nc1
7.66 | 7.10 |  |  | CN(CCNc1ccc([N+](=O)[O-])cn1)c1ncc(-n2ccnc2)c(-c2ccc(Cl)cc2Cl)n1
7.17 | 5.68 |  |  | COc1ccc(-c2nc(NCCNc3ccc([N+](=O)[O-])cn3)ncc2-n2ccnc2)cc1
7.62 | < 5.00 |  |  | O=[N+]([O-])c1cnc(NCCNc2ncc(-n3ccnc3)c(-c3ccc(Cl)cc3Cl)n2)s1
7.40 | 5.60 |  |  | O=[N+]([O-])c1ccc(NCCNc2ncc(-n3ccnc3)c(-c3ccc(C(F)(F)F)cc3)n2)nc1
